Laboratory results from US20130323171A1, “RADIOLABELED BBN ANALOGS FOR PET IMAGING OF GASTRIN-RELEASING PEPTIDE RECEPTORS” (priority 2012, published 2013).
Square brackets hold non-standard residues; d marks the D form. Peptide text beside a SMILES is read from it. Sta = CC(C)C[C@H](N)[C@@H](O)CC(=O)O; 4Abz = Nc1ccc(C(=O)O)cc1

Key:
[1] = Mouse serum stability of the PET probes; format: in vitro ADME; conditions: 37° C., 1 h
Method: The in vitro stability of the PET probes was evaluated by incubation with mouse serum (1 mL) at 37° C. for 1 h. The solutions were filtered using a NanoSep 10 K centrifuge (Pall Corp.) to isolate low-molecular-weight radiocomplexes. The samples were analyzed by the radio-HPLC, and the percentages of intact PET probe were determined by quantifying the peaks corresponding with the intact probe and degradation products.
More than 95% of the probes remained intact after 1 h of incubation in mouse serum at 37° C.

GRPR = target: T1, GRPR (Homo sapiens, UniProt P30550); assay: Cell-binding assay: inhibition of ^125I-[Tyr4]BBN binding on PC3 cells; conditions: 0.06 nM radioligand, 37° C., 1 h, n=4, mean±SD
T1 construct: endogenous in cells; host or cells: PC3 cells
T1 sequence (P30550 whole entry): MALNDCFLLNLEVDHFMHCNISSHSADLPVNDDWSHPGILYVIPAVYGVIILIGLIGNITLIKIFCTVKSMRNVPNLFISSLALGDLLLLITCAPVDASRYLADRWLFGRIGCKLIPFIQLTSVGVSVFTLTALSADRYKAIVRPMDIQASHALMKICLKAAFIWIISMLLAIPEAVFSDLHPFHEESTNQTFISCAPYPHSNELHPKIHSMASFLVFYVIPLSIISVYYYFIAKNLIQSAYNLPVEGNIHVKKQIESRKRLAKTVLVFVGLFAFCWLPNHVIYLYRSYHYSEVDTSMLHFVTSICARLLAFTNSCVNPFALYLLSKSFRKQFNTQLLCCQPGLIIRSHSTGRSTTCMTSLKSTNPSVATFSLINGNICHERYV
Method: The cell-binding assay was performed similarly as previously reported (18, 35). Briefly, the PC3 cells (3×10^4) were incubated with 0.06 nM ^125I-[Tyr4]BBN and varying concentrations of peptides in the binding buffer (RPMI 1640+2 mg/mL BSA+5.2 mg/mL HEPES) at 37° C. for 1 h. The cell-bound, residual radioactivity after washing was determined by gamma counting. […] The experiments were performed in quadruplicate.
All of these peptides inhibited the GRPR-binding of ^125I-[Tyr4]BBN on the PC3 cells in a concentration-dependent manner.

Compound	stability in mouse serum [1]	IC50 (GRPR) [nM]
CSCC[C@H](NC(=O)[C@H](CC(C)C)NC(=O)[C@H](Cc1c[nH]cn1)NC(=O)CNC(=O)[C@@H](NC(=O)[C@H](C)NC(=O)[C@H](Cc1c[nH]c2ccccc12)NC(=O)[C@H](CCC(N)=O)NC(=O)c1ccc(NC(=O)CNC(=O)CCC(C(=O)O)N2CCN(CC(=O)O)CCN(CC(=O)O)CC2)cc1)C(C)C)C(N)=O (single isomer, unassigned) [^64Cu-NODAGA-AMBA, metal not drawn]	exhibited degradation	–
CSCC[C@H](NC(=O)[C@H](CC(C)C)NC(=O)[C@H](Cc1c[nH]cn1)NC(=O)CNC(=O)[C@@H](NC(=O)[C@H](C)NC(=O)[C@H](Cc1c[nH]c2ccccc12)NC(=O)[C@H](CCC(N)=O)NC(=O)c1ccc(NC(=O)CN)cc1)C(C)C)C(N)=O [AMBA]	–	0.17 ± 0.07
CC(C)C[C@H](NC(=O)C[C@H](O)[C@H](CC(C)C)NC(=O)[C@H](Cc1c[nH]cn1)NC(=O)CNC(=O)[C@@H](NC(=O)[C@H](C)NC(=O)[C@H](Cc1c[nH]c2ccccc12)NC(=O)[C@H](CCC(N)=O)NC(=O)[C@@H](Cc1ccccc1)NC(=O)c1ccc(NC(=O)CN)cc1)C(C)C)C(N)=O [RM1, G-4-aminobenzoyl-D-Phe-Gln-Trp-Ala-Val-Gly-His-Sta-Leu-NH2] (H-G[4Abz][dF]QWAVGH[Sta]L-NH2; N-terminus assumed)	–	0.25 ± 0.04
